From patent US6960559B1, “Neurite growth regulatory factors” (University of Zurich, priority 1988, dated 2005)
Read-outs that look alike come from different tables or passages of the source. Where a SMILES comes first, the peptide text is derived from it. [ ]: non-standard residue; d: D form. The star is where a group is joined. Sta = CC(C)C[C@H](N)[C@@H](O)CC(=O)O; Isovaleryl = CC(C)CC(=O)*; Cbz = O=C(OCc1ccccc1)*

Tests used:
[1] = system: C6 cells; test: C6 cell infiltration into optic nerve explants; type: cell-based, rat; conditions: nerves injected with 3 mM peptide, 0.5 mM in medium; 14 days
Protocol: Optic nerve and sciatic nerve explants were prepared as described (Schwab and Thoenen, 1985, J. Neurosci. 5:2415-2423). Briefly, the nerves were rapidly dissected from about 8 week old male rats, cleaned from the meninges, 3 times frozen and thawed using liquid nitrogen, and placed under a teflon ring (diameter 13 mm, thickness 1 mm) sealed to a culture dish with silicon grease. Two chambers connected only by the explants were in this way obtained. 300,000 C6, 3T3 or B16 cells were plated in the inner chamber in DMEM/FCS and incubated for 5 to 20 days. The medium was changed every other day. Cultures were fixed overnight with 4% formalin. The nerve explants were mounted with Tissue-Tek, 10 to 15 μm sections were cut in a cryostate and collected on gelatine coated cover slips. After drying at room temperature overnight, the sections were stained in 0.75% cresyl violet, and evaluated. The infiltrated cells were counted for each 0.1 mm of the explants, starting from the tip where cells were added. Due to the 15 day incubation, the explants were often different in diameter. Therefore, only the central part of the nerves (0.25 mm) were considered, since only this part of the explants presented a good histological quality. Inhibition experiments were performed with nerve explants previously injected from both sides with 2 μl of 3 mM cbz-tyr-tyr or cbz-ala-phe solutions.

[2] = system: C6 cells; test: C6 cell spreading on CNS myelin or PLYS with protease inhibitors; type: cell-based, rat; conditions: for Inhibition on CNS (%): spreading on PLYS minus spreading on CNS myelin
Protocol: Rat C6, mouse NIH 3T3 and B16 cells were cultured in Dulbecco's modified Eagle's medium (DMEM) supplemented with 10% fetal calf serum (FCS), usually to maximally 70-80% confluency. Cells were harvested with a short trypsin treatment (0.1% in Ca^2+/Mg^2+-free Hank's medium for 90 seconds) stopped by addition of FCS in excess, collected by centrifugation. Cells were resuspended in either DMEM/FCS or defined serum-free medium (MEM) and used for experiments. Dissociated rat CNS glial cells were prepared starting from optic nerves of 6-7 days old Lewis rats as described in Section 6.1.1, supra and plated into poly-D-lysine (PLYS) coated wells (100 mm^2, 100 μl medium) at a density of 20,000 cells per well. The culture medium was an enriched L15 medium with 5% rat serum, penicillin and streptomycin. C6, 3T3 and B16 cells were added to 2 day old cultures at a concentration of 30,000 cells per well, incubated for two hours and fixed with warm 4% formalin in phosphate buffer. Inhibitory oligodendrocytes were identified by double labelling using the specific antibodies O1 and O4 (see Section 6.1.3, supra).
Myelin from rat spinal cord (CNS) or sciatic nerve (PNS) purified on a discontinuous sucrose gradient as described in Section 6.1.5., was dried overnight onto PLYS coated wells (20 μg protein/well of 100 mm^2 surface). Unbound membranes were removed by three washes with Ca^2+/Mg^2+-free Hank's solution. Myelin coated wells were immediately used in substrate testing assays by the addition of 9,000 cells (C6, 3T3, or B16) per cm^2. Alternatively, we used extracted CNS myelin protein, or SDS-PAGE purified 35 and 250 kD inhibitory proteins reconstituted in liposomes (see Section 7.1.5, supra). Experiments were scored at different time points using a phase contrast microscope equipped with a photocamera. Quantifications were done using a surface integration program; three arbitrary fields were photographed for each well at a magnitude of 80×, at least 25 cells per picture were measured. Each point represents the mean of at least 3 wells±SEM. Results are expressed as μ^2 of projected cell surface, or as degree, which was calculated by subtracting from the projected surface value of a spreading cell, the surface value of a completely spheric cell.

[3] = system: C6 cells; test: C6 cell attachment and spreading on rat cerebellar frozen sections; type: cell-based; conditions: 1,10-phenanthroline 50-300 μM; cbz-tyr-tyr 100 μM
Protocol: Adult rat cerebellum frozen sections were prepared and dried on glass coverslips. 70,000 C6, 3T3, or B16 cells in 100 μl were added to each well containing slices previously rinsed with cold DMEM/FCS. Cultures were incubated for 2 days at 37° C. Cultures were then fixed and stained with cresyl violet. Three to four cerebellum slices were used per point per experiment, with each experiment being repeated at least 2 times.

[4] = system: C6 glioblastoma cells; test: cells; type: cell-based, rat; conditions: 2 h
Protocol: Rat C6 glioblastoma cells (Benda et al., 1968, Science 161:370-371) were cultured in Dulbecco's modified Eagle's medium (DMEM) supplemented with 10% fetal calf serum (FCS), usually to maximally 70-80% confluency (Paganetti et al., 1988, J. Cell Biol. 107:2281-2291). All cell culture media were routinely supplemented with penicillin and streptomycin. Cells were harvested by a short trypsin treatment (0.1% in Ca^2+/Mg^2+-free [CMF] PBS/EDTA solution for 90 seconds) followed by addition of DMEM/10% FCS and centrifugation (600×g, 6 min). The cell pellet was rinsed with 5 ml DMEM/10% FCS and centrifuged. For cell spreading assays, cells were resuspended at 10^6/ml in defined serum-free medium (MEMα) supplemented with 0.2 μg/ml insulin, 0.5 μg/ml transferrin and 0.12 μg/ml bovine serum albumin (BSA). Protease blockers or peptides were added directly to the cell suspension from 10×solutions 10 min before plating.
Spinal cord myelin from young adult Lewis rats was purified on a discontinuous sucrose gradient (Colman et al., 1982, J. Cell Biol. 95:598-608; Schwab and Caroni, 1988, J. Neurosci. 8:2381-2393) and stored in 100 mM sucrose, 25 mM TRIS/HCl pH 7.4 at −80° C. up to 6 months. The myelin suspension ([…]) was incubated for 30 min on poly-D-lysine-coated wells (PLYS-wells). Unbound myelin membranes were removed by rinsing twice with CMF-Hank's and once with MEMα. Myelin-coated wells were used immediately for the spreading assay by adding 9'000 C6 cells per cm^2. Experiments were scored as described (Paganetti et al., 1988, J. Cell Biol. 107:2281-2291).

[5] = system: 3T3 cells; test: Treatment of CNS myelin with C6 plasma membranes, 3T3 spreading and 3H-thymidine incorporation; type: cell-based, mouse; conditions: 3T3 spreading on CNS myelin pretreated with C6 plasma membranes
Protocol: C6 cells grown to 80% confluency were washed twice with Hank's medium, and harvested in 20 ml 8.5% sucrose, 50 mM NaCl, 10 mM Tris buffer, pH 7.4, using a rubber policeman. After mechanical homogenization through a series of needles of decreasing size, a low purity plasma membrane fraction was obtained by centrifugation (5 minutes at 3000×g, 10 minutes at 8000×g, and then 2 hours at 100,000×g). A higher purity fraction was isolated by loading the material on a discontinuous sucrose gradient, containing 50 mM NaCl, 10 mM Tris, pH 7.4 (Quigley, 1976, J. Cell Biol. 71: 472-486). 20-40% sucrose interphase (C6 plasma membranes fraction) and 40-60% sucrose interphase (C6 mitochondrial fraction) were collected, washed in Hank's medium and resuspended in MEM.
CNS myelin coated PLYS wells were prepared as described in the previous section, but instead of being immediately tested as substrate, they were first incubated with 50 μl of C6 plasma membranes (containing 0.8 mg protein/ml MEM) at 37° for 30 minutes. Dishes were then rinsed twice with Hank's medium and immediately used as substrates for 3T3 cells. In some experiments, protease blockers were added to the membranes using 10 times concentrated solutions.

[6] = system: C6 plasma membrane associated metalloendoprotease; test: Enzyme assay: cbz-FAF[125I]Y-NH2 degradation by C6 plasma membranes with protease blockers; type: biochemical, rat
Protocol: For most experiments, 70-80% confluent cell layers (1 cm^2 wells, 100 μl MEMα) or 2-5 μg C6 plasma membrane (100 μl MEMα) were used. […] If indicated, cell layers or plasma membrane suspensions were preincubated for 30 min with protease blockers or peptides. NEM or iodacetamide incubations of plasma membranes were performed at pH 8.5. The incubation was stopped by loading a 10 μl aliquot of the incubation medium on a thin layer chromatography plate (10 cm height, Kieselgel 60 F254, MERCK, Germany) and air dried. […] Plates were then air dried and exposed on Kodak X-OMAT films (NY, USA) with an intensifying screen. To identify the degradation products on thin-layer chromatography, we run reference peptides under the same conditions.
For the quantification of the activity, the reaction was stopped by addition of an equal volume of chloroform. […] Activity is expressed as % radioactivity contained in the aqueous phase. 100% is the sum of the radioactivity of both phases.

[7] = C6 cells, 1,10-phenanthroline 0.3 mM, antibody as labelled or none, 150 minutes

Structure (SMILES) | Effect on cbz-FAF[^125I]Y-NH2 degradation by C6 plasma membranes, in words [6] | Inhibition on CNS (%) ([2]; C6 cells) | C6 cells on white matter of cerebellar frozen sections, in words [3] | Effect on neutralization of CNS myelin inhibitory activity by C6 plasma membranes, in words [5] | further results
O=C(N[C@@H](Cc1ccc(O)cc1)C(=O)N[C@@H](Cc1ccc(O)cc1)C(=O)O)OCc1ccccc1 [cbz-tyr-tyr, carbobenzoxy-tyrosine-tyrosine] (Cbz-Tyr-Tyr-OH) |  | 45% | dramatically changed the distribution and behavior of C6 cells on the white matter areas |  | C6 cell infiltration into optic nerve explants, in words [1]: inhibited C6 cell infiltration in all the 8 nerves examined; Maximal inhibition of C6 cell spreading on CNS myelin ([2]; 2 h): up to 67%; IC50 [4]: 300 µM
c1cnc2c(c1)ccc1cccnc12 [1,10-phenanthroline] | completely blocked the degradation | 67% | dramatically changed the distribution and behavior of C6 cells on the white matter areas | completely blocked the C6 plasma membrane effect | IC50 [6]: 200 µM; Effect on cbz-FAF[^125I]Y-NH2 degradation by C6 plasma membranes, in words ([6]; listed as o-phenanthroline): blocked completely either activities; Effect on C6 cell spreading on control substrates (PLYS, glass, PNS myelin), in words ([2]; 1,10-phenanthroline up to 0.5 mM): did not impair C6 cell spreading; Concentration exerting a general toxic effect on all substrates ([2]; C6 cells, 3 hours): above 0.5 mM; % inhibition on CNS lipos. ([2]; C6 cells, 1,10-phenanthroline 0.3 mM, antibody as labelled or none): 46%; Spreading value on CNS lipos. [2, 7]: 1.35 μm^2 10^3; Spreading value on PLYS [2, 7]: 2.49 μm^2 10^3; IC50 ([2]; Rattus norvegicus, C6, Section 9, read-out: Half maximal inhibition (IC50) of C6 spreading on CNS myelin): 200 µM; Maximal inhibition of C6 cell spreading on CNS myelin ([2]; after 2 hours in culture): up to 67%; IC50 ([4]; Rattus norvegicus, C6 cell spreading on CNS myelin, read-out: IC50 on CNS myelin): 200 µM; IC50 ([4]; Rattus norvegicus, C6 cell spreading on PLYS, read-out: IC50 PLYS): 600 µM
NC(=O)[C@H](Cc1ccccc1)NC(=O)CNC(=O)OCc1ccccc1 [cbz-gly-phe-NH2, carbobenzoxy-glycine-phenylalanine-amide] (Cbz-Gly-Phe-NH2) |  | 55% |  | completely blocked the C6 plasma membrane effect | 
CC(=O)N[C@@H](CC(C)C)C(=O)N[C@@H](CC(C)C)C(=O)N[C@H](C=O)CCCNC(=N)N [leupeptine] | had no effect | 8% |  | did not inhibit this effect | 
CC(C)CC(=O)N[C@H](C(=O)N[C@H](C(=O)N[C@@H](CC(C)C)[C@@H](O)CC(=O)N[C@@H](C)C(=O)N[C@@H](CC(C)C)[C@@H](O)CC(=O)O)C(C)C)C(C)C [pepstatine] (Isovaleryl-VV[Sta]A[Sta]-OH) | had no effect | 3% |  | did not inhibit this effect | 
